From ChEMBL document CHEMBL1201862, “PubChem BioAssay data set” (2004)
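Growth conditions: 96-well plates. Treatment: test compound, 48 hours, 5 concentrations. Analysis: linear interpolation between bracketing concentrations; unreached endpoints set to highest concentration. At the GI50, growth is halved.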 Calls of active or inactive are those of the source. Rule as the data show it: active = GI50 up to about 1.1 µM and inactive = higher.

Tests used:
Assay in all cases: NCI anticancer screen, dose series, 48 h
786-0 = test system: 786-0
A549 = test system: A549
ACHN = test system: ACHN
CAKI-1 = test system: CAKI-1
CCRF-CEM = test system: CCRF-CEM
HCC 2998 = test system: HCC 2998
HL-60 = test system: HL-60
M14 = test system: M14
MOLT-4 = test system: MOLT-4
NCI-H23 = test system: NCI-H23
OVCAR-3 = test system: OVCAR-3
OVCAR-5 = test system: OVCAR-5
OVCAR-8 = test system: OVCAR-8
SNB-19 = test system: SNB-19
SNB-75 = test system: SNB-75
U-251 = test system: U-251
UACC-257 = test system: UACC-257
UACC-62 = test system: UACC-62
NCI-H522 = test system: NCI-H522

Measured: GI50

Cc1ccc(C)c(NC(=O)CC2C(=O)Nc3ccccc3S2(=O)=O)c1 (stereo unspecified)
inactive: 786-0 22.8 µM | A549 > 100 µM | ACHN 48.2 µM | CAKI-1 31.8 µM | CCRF-CEM > 100 µM | HCC 2998 77.8 µM | HL-60 49.9 µM | M14 44.5 µM | MOLT-4 > 100 µM | NCI-H23 61.1 µM | OVCAR-3 42 µM | OVCAR-5 > 100 µM | OVCAR-8 37.2 µM | SNB-19 75 µM | SNB-75 21.5 µM | U-251 43.3 µM | UACC-257 > 100 µM | UACC-62 46.2 µM

O=c1[nH]c(Br)nc2c(Br)c[nH]c12
inactive: 786-0 > 100 µM | A549 > 100 µM | ACHN > 100 µM | CAKI-1 > 100 µM | CCRF-CEM > 100 µM | HL-60 > 100 µM | M14 > 100 µM | MOLT-4 > 100 µM | NCI-H23 > 100 µM | NCI-H522 31.3 µM | OVCAR-3 > 100 µM | OVCAR-5 > 100 µM | OVCAR-8 > 100 µM | SNB-19 > 100 µM | SNB-75 > 100 µM | U-251 > 100 µM | UACC-257 > 100 µM | UACC-62 > 100 µM

Cc1cc2c3ccccc3n3c2c2c1OC1(C)CCC(C2C1)C3(C)C (stereo unspecified)
inactive: 786-0 > 25 µM | A549 > 25 µM | ACHN > 25 µM | CCRF-CEM > 25 µM | HCC 2998 > 25 µM | HL-60 > 25 µM | M14 > 25 µM | MOLT-4 > 25 µM | NCI-H522 > 25 µM | OVCAR-3 > 25 µM | OVCAR-5 > 25 µM | OVCAR-8 > 25 µM | SNB-19 > 25 µM | U-251 > 25 µM | UACC-62 > 25 µM

O=C1OC(=O)C2C1C1(c3ccccc3)OC2(c2ccccc2)c2c(Br)c(Br)c(Br)c(Br)c21 (stereo unspecified)
inactive: 786-0 > 100 µM | A549 > 100 µM | CAKI-1 > 100 µM | CCRF-CEM > 100 µM | HL-60 > 100 µM | M14 > 100 µM | MOLT-4 > 100 µM | NCI-H23 > 100 µM | NCI-H522 > 100 µM | OVCAR-3 > 100 µM | OVCAR-5 > 100 µM | OVCAR-8 > 100 µM | SNB-19 > 100 µM | SNB-75 > 100 µM | U-251 > 100 µM | UACC-257 > 100 µM | UACC-62 > 100 µM

CC(C)(C=O)CC(C#N)/C(=N\NC(N)=O)C(=O)Nc1ccccc1C(N)=O (stereo unspecified)
inactive: 786-0 > 100 µM | A549 > 100 µM | ACHN > 100 µM | CAKI-1 > 100 µM | CCRF-CEM > 100 µM | HCC 2998 > 100 µM | HL-60 > 100 µM | M14 > 100 µM | MOLT-4 > 100 µM | NCI-H23 > 100 µM | NCI-H522 > 100 µM | OVCAR-3 > 100 µM | OVCAR-5 > 100 µM | OVCAR-8 > 100 µM | SNB-19 > 100 µM | U-251 > 100 µM | UACC-257 > 100 µM | UACC-62 > 100 µM

Oc1ccc([Te]CCNCC[Te]c2ccc(O)cc2)cc1
inactive: 786-0 28.7 µM | A549 3.66 µM | ACHN 20.1 µM | CAKI-1 30.5 µM | CCRF-CEM 2.97 µM | HCC 2998 12.8 µM | HL-60 5.55 µM | M14 17.6 µM | MOLT-4 4.49 µM | NCI-H23 4.78 µM | OVCAR-5 16 µM | OVCAR-8 16.3 µM | SNB-19 40.9 µM | SNB-75 6.55 µM | U-251 6.22 µM | UACC-257 36 µM | UACC-62 17 µM

CC1=Nc2ccccc2C1C(Cc1ccccc1N)c1c(C)[nH]c2ccccc12 (stereo unspecified)
inactive: 786-0 15.1 µM | A549 18.3 µM | ACHN 15.2 µM | CCRF-CEM 17.7 µM | HCC 2998 15.4 µM | HL-60 14 µM | M14 15 µM | MOLT-4 20.9 µM | NCI-H23 18.2 µM | NCI-H522 14 µM | OVCAR-3 15.1 µM | OVCAR-5 17.6 µM | OVCAR-8 16.6 µM | SNB-19 22.7 µM | SNB-75 17.5 µM | U-251 16.8 µM | UACC-257 17.8 µM | UACC-62 13.5 µM

O=[N+]([O-])c1ccc(C[P+](c2ccccc2)(c2ccccc2)c2ccccc2)cc1
inactive: 786-0 > 100 µM | A549 > 100 µM | ACHN > 100 µM | CCRF-CEM 80 µM | HCC 2998 36.1 µM | HL-60 27.2 µM | M14 56.9 µM | MOLT-4 > 100 µM | NCI-H23 83.8 µM | NCI-H522 32.7 µM | OVCAR-3 42.8 µM | OVCAR-5 > 100 µM | OVCAR-8 73.1 µM | SNB-19 > 100 µM | SNB-75 35.9 µM | U-251 31.7 µM | UACC-257 16.1 µM | UACC-62 32.1 µM

O=C1c2ccccc2C(=O)c2c(O)c(NCCNCCO)cc(O)c21
inactive: 786-0 3.33 µM | A549 3.55 µM | ACHN 2.17 µM | CAKI-1 2.08 µM | CCRF-CEM 3.05 µM | HCC 2998 3.78 µM | HL-60 4.69 µM | M14 4.42 µM | MOLT-4 3.02 µM | NCI-H23 3.77 µM | OVCAR-3 4.39 µM | OVCAR-5 10.2 µM | OVCAR-8 3.01 µM | SNB-19 1.75 µM | SNB-75 4.52 µM | UACC-257 6.59 µM | UACC-62 11.5 µM

Clc1ccc2nc(-c3ccccc3)nc(Cl)c2c1
inactive: 786-0 33 µM | A549 50.6 µM | ACHN 24.9 µM | CAKI-1 21.1 µM | CCRF-CEM 38.6 µM | HCC 2998 40.2 µM | HL-60 12.5 µM | MOLT-4 > 100 µM | NCI-H23 69.2 µM | OVCAR-3 49.2 µM | OVCAR-5 > 100 µM | OVCAR-8 37 µM | SNB-19 69.2 µM | SNB-75 22.1 µM | U-251 68.1 µM | UACC-257 45 µM | UACC-62 49.8 µM

COc1ccc2[nH]c3c(c2c1)CCN(C)CC3
inactive: 786-0 > 100 µM | A549 > 100 µM | ACHN > 100 µM | CAKI-1 > 100 µM | CCRF-CEM > 100 µM | HCC 2998 > 100 µM | HL-60 71.8 µM | M14 > 100 µM | MOLT-4 > 100 µM | NCI-H23 > 100 µM | OVCAR-3 > 100 µM | OVCAR-5 > 100 µM | OVCAR-8 > 100 µM | SNB-19 > 100 µM | SNB-75 > 100 µM | U-251 > 100 µM | UACC-257 > 100 µM | UACC-62 > 100 µM
